According to publication PMC12040169 (PLOS Biology, 2025):

assay: in vitro; conditions: human, hela cells, % viability

Row | SMILES | viability at 28.5 h, 10 µM [%]
1 | Cc1cccc(-c2ncc(NC(=O)Cc3ccc(-c4ccccc4)cc3)nc2-c2ccc(N(C)C)cc2)c1 [CBK037567] | 98.1
2 | Cn1nc(C(F)(F)F)cc1C1CCCCCN1S(C)(=O)=O (centres unmarked) [CBK284673] | 101
3 | CCc1nc2ccc(C(=O)N(C)CCN(C)C)cn2c1N(C)Cc1cc2ccccc2s1 [CBK146551] | 89.3
4 | C[C@H]1[C@@H]2[C@@H](O)C([C@H](C)C(=O)N3CCCC3)CC[C@@]2(C)CC[C@@H]1NC(=O)c1ccccc1 (some centres unmarked) [CBK289441] | 106
5 | COc1ncc(-c2nccnc2NCc2cccc(Cl)c2)c(OC)n1 [CBK037990] | 90
6 | O=C(NCc1cccs1)c1ccc(-c2ccc(OC(F)(F)F)cc2)nc1 [CBK156221] | 90
7 | Cc1nc(COc2ccc(F)cc2)sc1C(=O)O [CBK305074] | 98
8 | O=C(O)C[C@@H]1CCN(C(=O)c2ccc3c(c2)OCO3)C[C@@H]1CC1=NCCc2ccccc21 [CBK289160] | 110
9 | Cc1cccc(OC(=O)C2C(c3ccccc3)C(C(=O)O)C2c2ccccc2)c1 (centres unmarked) [CBK263843] | 94
10 | COc1ccc2sc(C)nc2c1 [CBK028488] | 101
11 | CNS(=O)(=O)c1cccc(C(C)NC(=O)N2CCC(COC)CC2)c1 (centres unmarked) [CBK304087] | 90.4
12 | FC(F)(F)c1ccc(OCCN2CCOCC2)nc1 [CBK113461] | 101
13 | Cc1ccc([N+](=O)[O-])cc1S(=O)(=O)Nc1ccc(O)c(Sc2nc3ccccc3s2)c1 [CBK266936] | 97.6
14 | COc1ccc(CCC(=O)N2CCCC2c2ccc(Cc3ccccc3F)cn2)cc1 (centres unmarked) [CBK285992] | 94.2
15 | CN(C)c1ccc(C(=O)Nc2nnc(C3=COCCO3)o2)cc1 [CBK287415] | 98.8
16 | CCOc1oc2cc(O)ccc2c1C(=O)CSC1CCCCC1 [CBK022262] | 87.1
17 | O=C(/C=C/c1ccco1)Nc1sc2c(c1C(=O)NCc1ccco1)CCC2 [CBK265616] | 104
18 | CCN(C(=O)c1cnc2scc(C)n2c1=O)c1ccccc1 [CBK287452] | 105
19 | COc1cc(-c2cncc(N(CCO)CCO)n2)cc(OC)c1OC [CBK065544] | 112
20 | O=C(COC(=O)CN1C(=O)C(=O)c2ccccc21)Nc1cccc2ccccc12 [CBK263915] | 90.5
21 | COC[C@@H]1OC[C@@]2(C)C3CC[C@@H](O)[C@@H](CC(=O)NCc4ccccc4)[C@]3(C)CC[C@H]2O1 (some centres unmarked) [CBK289574] | 79.1

Row | SMILES | viability at 28.5 h, 10 µM [%]
22 | CC(c1ccc(Cl)cc1)N(CCN(C)C)c1ccccn1 (centres unmarked) [CBK012273F] | 100
23 | O=C(O)c1ccc2c(c1)C(=O)N(c1ccc(-c3nc(-c4ccccc4)c4ccccc4n3)cc1)C2=O [CBK263311] | 101
24 | CCNC(=O)N[C@H]1C[C@@H](Cc2cc(CN(C)C)on2)C1(C)C [CBK289310] | 105
25 | COc1ccc2nc(-n3nc(C(=O)NCc4ccncc4)c4ccccc43)sc2c1 [CBK048521] | 94.9
26 | Nc1nc(=O)n([C@@H]2O[C@H](CO)[C@H](O)C2O)cc1CO (some centres unmarked) [CBK201160] | 92.7
27 | c1ccc(COc2ccc(CN3CCN(c4ccccn4)CC3)cc2)cc1 [CBK261865] | 89.3
28 | Cn1cnnc1CCC(=O)NCC1CCN(c2ccccc2F)C1 (centres unmarked) [CBK307587] | 76.5
29 | CCC(C)(C)C1CCc2c(sc(NC(=O)CN3CCOCC3)c2C#N)C1 (centres unmarked) [CBK270048] | 89.4
30 | CC(C)c1ccc(S(=O)(=O)NCCC2CCN(Cc3ccccc3)CC2)cc1 [CBK043456] | 94.5
31 | O=C(CN1CCCCC1)Nc1c(-c2ccccc2)c2cc(Br)ccc2[nH]c1=O [CBK263351] | 94.7
32 | CC(NC(=O)CCn1cncn1)c1cccs1 (centres unmarked) [CBK282199] | 103
33 | CC(=O)N1CCc2c(sc(NC(=O)c3ccccc3C)c2C#N)C1 [CBK304681] | 78.7
34 | Cc1nc2c(oc3nc(-c4ccoc4)c4c(c32)CC(C)(C)OC4)c(-c2ccccc2)c1C(=O)O [CBK265286] | 109
35 | O=C(O)c1ccc(OCCNS(=O)(=O)c2ccc3oc4ccccc4c3c2)cc1 [CBK299797] | 90.8
36 | CC(=O)Nc1ccc(CNC(=O)c2ccc[nH]2)cc1 [CBK304538] | 87.1
37 | COc1ccccc1C(NC(=O)C1CCN(CCCN2C(=O)CC3CCCCC3C2=O)CC1)c1ccccn1 (centres unmarked) [CBK147940] | 95
38 | O=C(NC(N1CCOCC1)C(Cl)(Cl)Cl)c1ccc(Cl)cc1 (centres unmarked) [CBK261084] | 94.2
39 | CC(C)C(NC(=O)CSc1n[nH]c(=O)n1Cc1ccccc1)c1ccc2c(c1)OCCCO2 (centres unmarked) [CBK297875] | 106
40 | CCOc1cc2c(cc1OCC)C(c1ccc(OC)c(O)c1)NCC2 (centres unmarked) [CBK074443C] | 88.7
41 | COc1ccccc1-n1nc(-c2ccncc2)nc1C(C)NS(C)(=O)=O (centres unmarked) [CBK306868] | 98
42 | COc1cc(SC)ccc1C(=O)N[C@H]1CCN2C(=O)[C@@H](CC(=O)O)NC(=O)[C@@H]2C1 [CBK289555] | 108

Row | SMILES | viability at 28.5 h, 10 µM [%]
43 | COc1cc(CN2CCC3(CC2)CN(CC(N)=O)c2ccccc23)cc(OC)c1OC [CBK126774] | 93.1
44 | CN1CCC(Cc2nc(-c3cccc(OC(F)F)c3)n(CCO)n2)CC1 [CBK307294] | 90.2
45 | CC(C)(C)C(=O)CN1CCC2(CC1)NCCc1c2[nH]c2cc(F)ccc12 [CBK039568] | 90.2
46 | COc1ccc(OC)c(NC(=O)CN2CCN(c3ccccn3)CC2)c1 [CBK262978] | 83.7
47 | O=C(c1ccco1)N1CCC2(CCCNC2)C1 (centres unmarked) [CBK153233C] | 93.8
48 | CCN(CC)C(=O)c1ccccc1NS(=O)(=O)c1ccc(OC)c(OC)c1 [CBK045423] | 92.6
49 | Cn1c(N2CC[C@H](O)C2)nc2cc(C(=O)NCCn3cccc3)ccc21 [CBK307480] | 83.6
50 | COCC(=O)Nc1c[nH]nc1C1CCCN(c2cccc(F)c2C#N)C1 (centres unmarked) [CBK305395] | 86
51 | O=C(CCC(=O)N1CCC2(CC1)CC(=O)c1ccccc1O2)NCC1CCCO1 (centres unmarked) [CBK156525] | 86.2
52 | O=C1c2cccc3cccc(c23)C(=O)N1CC1CCN(CC(O)COCC2COc3ccccc3O2)CC1 (centres unmarked) [CBK074412C] | 100
53 | Cc1cc(C)c2c(N)c(C(=O)Nc3ccc(C(=O)O)cc3)sc2n1 [CBK300515] | 100
54 | CSCCCNC(=O)N1CCN(C2CCN(C)CC2)CC1 [CBK155882] | 101
55 | FC(F)(F)c1ccc(N2CCNCC2)nc1OCc1ccc2c(c1)OCCO2 [CBK003994A] | 113
56 | Cc1nn(C)c(C)c1CC(=O)Nc1nc(C(C)(C)C)cs1 [CBK250992] | 105
57 | CSc1nnc2c(n1)[nH]c1ccccc12 [CBK025967] | 96.6
58 | O=C(O)c1ccc(OCCN2CCOCC2)cc1 [CBK287038] | 94.5
59 | CC(NC(=O)COc1ccc(Cl)cc1)C(=O)O (centres unmarked) [CBK262112] | 90.7
60 | Cc1csc2c(N3CCCC3CC(=O)c3cnn(C)c3)ncnc12 (centres unmarked) [CBK304429] | 81.8
61 | CN(C)S(=O)(=O)N(CC(=O)NCc1ccncc1)c1ccccc1 [CBK268322] | 111
62 | Cc1cc(C)nc(Sc2nnc(-c3ccc(C)c(S(=O)(=O)N4CCOCC4)c3)c3ccccc23)n1 [CBK264400] | 105
63 | O=C1COc2ccccc2C/C=C/CC2(CCN(CC(=O)N3CCCC3)CC2)CN1 [CBK292126] | 93.7

Row | SMILES | viability at 28.5 h, 10 µM [%]
64 | CC(=O)Nc1ccc(S(=O)(=O)NC2(C(F)(F)F)C(=O)Nc3c2c(=O)[nH]c(=O)n3CCc2ccccc2)cc1 (centres unmarked) [CBK267937] | 104
65 | O=C(c1cnc2cc(Cl)ccc2c1O)N1CCN(c2ncccn2)CC1 [CBK107358] | 108
66 | COc1ccccc1Cc1cccc(C2CCN(C(=O)Cc3c[nH]c4ccccc34)CC2)n1 [CBK286226] | 92.8
67 | OCCN(Cc1cccs1)Cc1c[nH]nc1-c1cccs1 [CBK282599] | 86
68 | Cc1nc(Nc2ccc(Cl)cc2)nc(N2CCN(C)CC2)n1 [CBK023855] | 95.4
69 | CC(C)c1ccc(NC(=O)CSc2nnc(Cc3cccc4ccccc34)o2)cc1 [CBK267371] | 88.7
70 | CN1CCN(C(=O)C2CCCCC2C(=O)O)CC1 (centres unmarked) [CBK287092] | 86.4
71 | CN(C)S(=O)(=O)CCNC(=O)c1ccc(-c2ccccc2CO)cc1 [CBK306773] | 95.6
72 | CC(C)C(NC(=O)CN1CSCC1=O)c1ccc(C(C)(C)C)cc1 (centres unmarked) [CBK297899] | 88.6
73 | COc1ccc(-c2ccc(CCC(=O)O)n2NC(N)=S)cc1 [CBK266018] | 102
74 | O=C(O)C1CC(O)CN1S(=O)(=O)c1ccc(Cl)cc1 (centres unmarked) [CBK266106] | 86.8
75 | Cc1cc(OC(=O)C2CCC(CNC(=O)OC(C)(C)C)CC2)c2c3c(c(=O)oc2c1)CCC3 (centres unmarked) [CBK083583] | 103
76 | Clc1ccccc1-c1nccnc1NCCc1ccncc1 [CBK038055] | 98.1
77 | CCN1C(=O)C2(CC(=O)N(Cc3ccccc3)C2=O)c2cc(Cl)ccc21 (centres unmarked) [CBK075233] | 99.1
78 | CCOc1ccccc1-c1ccccc1NC(=O)c1nc2ccccc2n(C)c1=O [CBK285855] | 90.1
79 | O=C(O)CCC(=O)CCC(=O)c1cccs1 [CBK264807] | 94.2
80 | COC(=O)c1cc(CN2CCCN(S(=O)(=O)c3ccc(C(F)(F)F)cc3Cl)CC2)cn1C [CBK063097] | 99.4
81 | CC(C)C(=O)N[C@@H](C)Cn1c(C(F)(F)F)cc2cccnc21 [CBK283231] | 95.6
82 | O=C(NCC1CCNCC1)c1ccncc1 [CBK267637C] | 95
83 | CC(NC(=O)CN1CCCCCC1=O)c1cc2cc(Cl)ccc2o1 (centres unmarked) [CBK281448] | 87.7
84 | CN(Cc1ccccc1)C(=O)c1c[nH]nc1C1CCCCN1Cc1ccccc1Cl (centres unmarked) [CBK285936] | 88.1

same assay, conditions: human, hela cells, % viability, bulk resorufin, single well

Row | SMILES | viability at 28.5 h, 10 µM [%]
85 | COc1ccc(N2C(=O)NC(=O)/C(=C/c3cn(CC(=O)Nc4ccccc4)c4ccccc34)C2=O)cc1 [CBK263547] | 110
86 | CCCC(=O)C1(c2ccccc2)CCNCC1 [CBK022936C] | 89.3
